Legend:
Assay type in all cases: physicochemical
[1] = Excipient appropriate to lyophilization 2: re-solubility after storage; settings: lyophilized, Polysorbate 20 0.5%, 25° C.
Description: The lyophilized preparations having mannitol and sucrose added thereto were observed on their variation with the passage of time.
(§1) First, Polysorbate 20 was dissolved in distilled water in a concentration of 0.5%, and the saccharides were dissolved in such concentrations as listed in Table 7. Next, 20 mg of the active component (KRN7000) was weighed and stirred in 100 ml of the solvents in a heated bath to 80° C. for 20 minutes in order to form a solution. After cooling with running water, the mixture was filtered through a 0.22 μm filter, and transparent colorless glass vials having a volume of 5 ml were charged with a 1 ml portion of each of a variety of solutions thus obtained and subjected to lyophilization. Lyophilization was carried out under the condition of preliminary freezing at −40° C. for 2 hours and drying at −20° C. for 24 hours, 10° C. for 12 hours, and finally at 25° C. for 5 hours to give the lyophilized product. The degree of vacuum was set at 0.1 Torr or less during drying step.
After the lyophilization step, the lyophilized composition was stored at 25° C. After storage for 1 month, the lyophilized composition was reconstituted in 1 ml of distilled water for injection, left standing for 30 minutes, and solubility was judged when the foams generated on reconstitution disappeared. The samples judged in solution were further stored, and judged again of their solubility after 4 months.
(§2) The solubility was judged by cleaning the outside of the vial and placing it beneath the white light source in a darkroom for observation with naked eye at the position of a luminous intensity of about 5,000 lux. When the sample was clear with no precipitates, it was judged that the active component was dissolved.

[2] = Additives for improving re-solubility during storage, sucrose as excipient; settings: lyophilized, Polysorbate 20 0.5%, Sucrose 9.6%
Description: as §1, with “sucrose and a variety of additives” for “the saccharides were dissolved in”, “9.” for “7.”
After the lyophilization step, the lyophilized composition thus obtained was stored at 25° C. or 50° C. , or at both of these temperatures. After storage at 25° C. for 1 month or at 50° C. for 3 days, the lyophilized composition was reconstituted in 1 ml of distilled water for injection, left standing for 30 minutes, and solubility was judged when the foams generated on reconstitution disappeared. The samples judged in solution were further stored, and judged again of their solubility after storage at 25° C. for 4 months or at 50° C. for 2 weeks.
as §2

[3] = Addition effects of sodium deoxycholate and histidine in the absence of a sugar; settings: lyophilized, Polysorbate 20 0.5%, no sugar, 1%, 50° C.
Description: Addition effects of sodium deoxycholate and histidine in the absence of a sugar as the excipient was examined.
as §1, with “histidine or sodium deoxycholate” for “the saccharides were dissolved”, “a concentration of 1.0%.” for “such concentrations as listed in Table 7.”
After the lyophilization step, the lyophilized composition thus obtained was stored at 50° C. After storage for 3 days or 2 weeks, the lyophilized composition was reconstituted in 1 ml of distilled water for injection, left standing for 30 minutes, and solubility was judged when the foams generated on reconstitution disappeared. […]

Re-solubility after storage (by naked eye) ([1]; Mannitol 10%, 1 month): − (dissolved) | Re-solubility after storage (by naked eye) ([1]; Mannitol 10%, 4 months): + (not dissolved (or deposited)) | Re-solubility after storage (by naked eye) ([1]; Sucrose 9.6%, 1 month): − (dissolved) | Re-solubility after storage (by naked eye) ([1]; Sucrose 9.6%, 4 months): + (not dissolved (or deposited)) | Re-solubility after storage (by naked eye) ([2]; Arginine, 0.1%, 50° C., 3 days): + (not dissolved (or deposited)) | Re-solubility after storage (by naked eye) ([2]; Glycerol, 1%, 25° C., 1 month): + (not dissolved (or deposited)) | Re-solubility after storage (by naked eye) ([2]; Glycine, 0.1%, 50° C., 3 days): + (not dissolved (or deposited)) | Re-solubility after storage (by naked eye) ([2]; Glycine, 1%, 50° C., 3 days): + (not dissolved (or deposited)) | Re-solubility after storage (by naked eye) ([2]; Histidine, 2%, 50° C., 2 weeks): − (dissolved) | Re-solubility after storage (by naked eye) ([2]; Histidine, 2%, 50° C., 3 days): − (dissolved) | Re-solubility after storage (by naked eye) ([2]; Pluronic F68, 0.1%, 25° C., 1 month): − (dissolved) | Re-solubility after storage (by naked eye) ([2]; Pluronic F68, 0.1%, 25° C., 4 month): + (not dissolved (or deposited)) | Re-solubility after storage (by naked eye) ([2]; Pluronic F68, 1%, 25° C., 1 month): − (dissolved) | Re-solubility after storage (by naked eye) ([2]; Pluronic F68, 1%, 25° C., 4 month): + (not dissolved (or deposited)) | Re-solubility after storage (by naked eye) ([2]; Propylene glycol, 1%, 25° C., 1 month): + (not dissolved (or deposited)) | Re-solubility after storage (by naked eye) ([2]; Sodium deoxycholate, 0.1%, 25° C., 1 month): − (dissolved) | Re-solubility after storage (by naked eye) ([2]; Sodium deoxycholate, 0.1%, 25° C., 4 month): + (not dissolved (or deposited)) | Re-solubility after storage (by naked eye) ([2]; Sodium deoxycholate, 1%, 25° C., 1 month): − (dissolved) | Re-solubility after storage (by naked eye) ([2]; Sodium deoxycholate, 1%, 25° C., 4 month): − (dissolved) | Re-solubility after storage (by naked eye) ([2]; Sodium deoxycholate, 1%, 50° C., 2 weeks): − (dissolved) | Re-solubility after storage (by naked eye) ([2]; Sodium deoxycholate, 1%, 50° C., 3 days): − (dissolved) | Re-solubility after storage (by naked eye) ([2]; no additive, 25° C., 1 month): − (dissolved) | Re-solubility after storage (by naked eye) ([2]; no additive, 25° C., 4 month): + (not dissolved (or deposited)) | Re-solubility after storage (by naked eye) ([2]; no additive, 50° C., 3 days): + (not dissolved (or deposited)) | Re-solubility after storage (by naked eye) ([3]; Histidine, 2 weeks): + (not dissolved (or deposited)) | Re-solubility after storage (by naked eye) ([3]; Sodium deoxycholate, 3 days): + (not dissolved (or deposited))
Compound: CCCCCCCCCCCCCCCCCCCCCCCCCC(=O)N[C@@H](CO[C@H]1O[C@H](CO)[C@H](O)[C@H](O)[C@H]1O)[C@H](O)[C@H](O)CCCCCCCCCCCCCC [KRN7000, (2S,3S,4R)-1-(α-D-galactopyranosyloxy)-2-hexacosanoylamino-3,4-octadecanediol]

Reference: patent US6417167B1, “Lyophilized compositions containing shingoglycolipid and process for preparing them” (Kirin Beer Kabushiki Kaisha, priority 1997, dated 2002)
